Where two headings read alike, the source gives them in different places. Where no end group is shown, it is not given here.

12 substances from patent EP4725954A1, “MODIFIED PEPTIDES SUCH AS POLYPEPTIDES LA-19 AND TM-19 HAVING ANTI-AGING AND REPAIRING EFFECTS AND USE THEREOF” (Anhui Dexin Huahai Biological Technology Co. Ltd., priority 2023, dated 2025) can be followed below.

The subject of series [1] is Human keratinocytes (HaCaT cells). As to the kind of experiment: Cytotoxicity test of the polypeptides on keratinocytes (CCK-8). To be noted: in words; for effect on cell growth: compared to the blank group.
Procedure: (§3) Human keratinocytes (HaCaT cells, Nanjing Saihongrui Biotechnology Co., Ltd.).
(§4) Cell culture conditions: constant temperature and humidity incubator (37°C, 95% air, 5% carbon dioxide), 90% dulbecco's modified eagle medium (DMEM) high-glucose medium + 10% fetal bovine serum (Nanjing BioChannel Biotechnology Co., Ltd).
(§5) A cell culture flask was taken out from the cell incubator, observed under a microscope, and the cells were in the logarithmic growth phase. In a clean bench, the medium was discarded, the cells were rinsed with 2 mL of phosphate buffer saline (PBS) and discarded; after repeating the above process once, 2 mL of 0.25% trypsin was added for digestion. The digestion was terminated by adding a corresponding volume of serum-containing medium, and the cells were transferred to a 15 mL conical centrifuge tube and centrifuged at 1000 rpm for 5 minutes. The serum-containing medium was resuspended in a resuspension volume of 2 mL. The cells were counted and calculated. The cells were then diluted, and plated; then the diluted cell suspension was taken, then the 96-well plate was paved with 10^4 cells/well, and the edge wells were filled with PBS. The well plate was taken out from the cell incubator, the medium was discarded, the well-plate of the administration group was added with the corresponding drugs and placed into the cell incubator for incubation for 48 hours. On the day of detection, the 96-well plate was taken out from the cell incubator, and added with 10 µL of a CCK-8 reagent per well in the clean bench, and then quickly placed into the cell incubator for 60 minutes, and the absorbance was measured with a microplate reader and the absorbance was measured at OD 450 nm. The average reading of the blank group was taken, and the numerical value of each group was divided by the average value to obtain the change in cell viability. Results are expressed as Mean ± SEM, compared with the blank group, *P<0.05 denotes a significant difference, **P<0.01, ***P<0.001, and ****P<0.0001 denote very significant differences.
Series [2] has the same test system.
Procedure: as §3, §4, §5
The next series has as its system IL-6. The series is described as follows: Anti-inflammatory activity test on keratinocytes: IL-6 ELISA. It is filed as cell-based, Human. The note with it: 10 µM; UVB 30 mJ/cm^2, HaCaT supernatant; blank 10.619, model 18.622; Mean ± SEM. On the procedure: (§1) Interleukin-6 ELISA assay kit (Shanghai Beyotime Biotechnology Co., Ltd.); tumor necrosis factor α ELISA assay kit (Shanghai Beyotime Biotechnology Co., Ltd.); 6-well plate (Wuxi NEST Biotechnology Co., Ltd.); and palmitoyl tetrapeptide-7 (Shenzhen Jianyuan Pharmaceutical Technology Co., Ltd.). Other experimental materials and instruments are the same as those in Examples 1, 2, and 3.
(§2) The cells were counted and calculated. […] After 24 hours of incubation, cell UV modeling was performed. The UVB lamp tube was turned on, and the radiation intensity was measured with a UV irradiance meter. When the radiation intensity reached 500 µW/cm^2, the uncovered 6-well plate was placed and irradiated for 1 minute such that the radiation dose was up to 30 mJ/cm^2. At the end of the radiation, the 6-well plate was covered and placed into the cell incubator.

The test system of the next series is TNF-α. As to the kind of experiment: Anti-inflammatory activity test on keratinocytes: TNF-α ELISA. Type of series: cell-based, Human. The note with it: 10 µM; UVB 30 mJ/cm^2, HaCaT supernatant; blank 2.890, model 10.812; Mean ± SEM. On the procedure:
as §1, §2

Consider LQSSLRALRQMGGGTKAAA-NH2 [P7], for which the “effect on cell growth” value in series [1] was “do not significantly inhibit cell growth”.

For the substance Ac-LQTSLRALRQIGGGTKAAA [P9], the “effect on cell growth” value in series [1] is listed as “do not significantly inhibit cell growth”.

Regarding TKAAA [Acein, reference compound], the “effect on cell growth” value in series [1] was “do not significantly inhibit cell growth”.

As to LQTSLRALRQIGGGTKAAA [P8], the “effect on cell growth” value in series [1] is “do not significantly inhibit cell growth”.

With Ac-LQSSLRALRQMGGGTKAAA [P6], the “effect on cell growth” value in series [1] was “do not significantly inhibit cell growth”.

For the substance GGGLQSSLRALRQM [P4], the “effect on cell growth” value in series [1] is “do not significantly inhibit cell growth”.

With TKAAAGGGLQTSLRALRQI [P10], the “effect on cell growth” value in series [1] is “do not significantly inhibit cell growth”.

For the substance LQSSLRALRQM [P5], the “effect on cell growth” value in series [2] was “do not significantly inhibit cell growth”.

Turning to TKAAAGGGLQSSLRALRQM [TM-19], the “effect on cell growth” value in series [1] was “slightly inhibit cell growth at low concentrations but promote cell proliferation at high concentrations”.

For the substance LQSSLRALRQMGGG [P3], the “effect on cell growth” value in series [1] is “do not significantly inhibit cell growth”.

For the substance LQSSLRALRQMGGGTKAAA [LA-19], in series [1], the toxicity to keratinocytes result was “no obvious toxicity to keratinocytes” and the “effect on cell growth” value is given as “do not significantly inhibit cell growth”.

palmitoyl tetrapeptide-7: in the series with IL-6, the “IL-6 activity (pg/mgprot)” value is listed as 13.901±1.356 pg/mgprot. The “TNF-α activity (pg/mgprot)” value in the series with TNF-α was 6.832±2.461 pg/mgprot.
